Test results as given in paper PMC10709440, “High-throughput ligand profile characterization in novel cell lines expressing seven heterologous insect olfactory receptors for the detection of volatile plant biomarkers” (Scientific Reports, 2023).
“And” between values parts separate entries of the source, which are not always exact repeats. Equal values may be shown once. Read-outs that look alike come from different tables or passages of the source.

Legend:
OR49b = test system: OR49b; parameters: method as in earlier work; conditions: DoOR database value; ref DoOR; cited from earlier work
OR47a = test system: OR47a; parameters: method as in earlier work; conditions: DoOR database value; ref DoOR; cited from earlier work
OR71a = test system: OR71a; parameters: method as in earlier work; conditions: DoOR database value; ref DoOR; cited from earlier work
OR98a = test system: OR98a; parameters: method as in earlier work; conditions: DoOR database value; ref DoOR; cited from earlier work
OR10a = test system: OR10a; parameters: method as in earlier work; conditions: DoOR database value; ref DoOR; cited from earlier work
OR85b = test system: OR85b; parameters: method as in earlier work; conditions: DoOR database value; ref DoOR; cited from earlier work
OR13a = test system: OR13a; parameters: method as in earlier work; conditions: DoOR database value; ref DoOR; cited from earlier work
Drosophila OR85b = target: T1, Drosophila OR85b (Drosophila melanogaster, UniProt Q9VHQ7); assay: Calcium ion fluorescence (GCaMP6) assay, OR85b stable HEK293 cell line; format: cell-based; conditions: for Average response: OR85b cell line, VUAA1-normalized response, mean of biological replicates
T1 construct: expressed in transfected cells
T1 sequence (Q9VHQ7 1-390): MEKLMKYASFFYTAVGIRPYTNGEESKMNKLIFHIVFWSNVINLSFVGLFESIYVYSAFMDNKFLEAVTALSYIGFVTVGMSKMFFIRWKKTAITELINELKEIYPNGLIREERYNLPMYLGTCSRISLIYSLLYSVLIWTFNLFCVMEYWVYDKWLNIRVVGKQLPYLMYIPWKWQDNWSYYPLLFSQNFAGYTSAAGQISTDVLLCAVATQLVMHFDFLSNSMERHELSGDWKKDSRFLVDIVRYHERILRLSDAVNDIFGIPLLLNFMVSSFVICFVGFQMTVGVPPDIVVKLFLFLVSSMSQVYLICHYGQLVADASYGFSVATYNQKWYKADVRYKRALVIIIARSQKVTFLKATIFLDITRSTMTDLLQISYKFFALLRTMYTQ
T1 sequence (Q9VNB5 1-486 partner): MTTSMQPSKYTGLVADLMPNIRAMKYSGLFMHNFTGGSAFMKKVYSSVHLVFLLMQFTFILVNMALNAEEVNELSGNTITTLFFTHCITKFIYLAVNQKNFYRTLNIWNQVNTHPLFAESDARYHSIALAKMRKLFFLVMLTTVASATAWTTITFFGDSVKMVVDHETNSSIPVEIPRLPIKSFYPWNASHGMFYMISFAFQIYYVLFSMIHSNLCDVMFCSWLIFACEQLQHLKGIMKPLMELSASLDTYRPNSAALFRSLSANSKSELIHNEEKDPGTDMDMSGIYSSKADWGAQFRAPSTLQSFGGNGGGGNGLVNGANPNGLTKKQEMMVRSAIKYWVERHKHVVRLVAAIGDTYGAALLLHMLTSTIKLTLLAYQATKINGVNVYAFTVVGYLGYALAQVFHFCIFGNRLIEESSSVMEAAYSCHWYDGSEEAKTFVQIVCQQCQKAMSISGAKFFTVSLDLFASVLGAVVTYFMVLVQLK
Summary of the method: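 Responses are VUAA1-normalized ΔF: each VOC-evoked calcium signal, (FMAX−F0)/F0 over 30 s after injection, divided by the same line's mean 50 µM VUAA1 response. Cells were doxycycline-induced HEK293 with GCaMP6 and the cognate Drosophila OR, in HEPES buffer pH 7.3; ligands tested 0.01–100 μM.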

[1] = HEK293, read-out: OR85b Average response (VUAA1-normalized)
[2] = HEK293, read-out: OR85b response (VUAA1-normalized response)
[3] = VOC concentration 0.15 (unit not given)
[4] = VOC concentration 0.3 (unit not given)
[5] = VOC concentration 0.6 (unit not given)
[6] = VOC concentration 1.25 (unit not given)
[7] = VOC concentration 2.5 (unit not given)
[8] = VOC concentration 5 (unit not given)
[9] = VOC concentration 10 (unit not given)
[10] = VOC concentration 20 (unit not given)
[11] = VOC concentration 40 (unit not given)
[12] = VOC concentration 60 (unit not given)
[13] = VOC concentration 80 (unit not given)
[14] = VOC concentration 100 (unit not given)
[15] = concentration 1, normalized fluorescence change, values below 0.05 threshold given as 0
[16] = concentration 10, normalized fluorescence change, values below 0.05 threshold given as 0
[17] = concentration 100, normalized fluorescence change, values below 0.05 threshold given as 0

In the case of `CCCCCC(C)=O` [2-heptanone], the “OR49b DoOR response” value (OR49b) is given as 0.011, the “OR47a DoOR response” value (OR47a) is given as 0.58 and the “OR71a DoOR response” value (OR71a) is given as 0.045. The “OR98a DoOR response” value (OR98a) was 0.62, the “OR10a DoOR response” value (OR10a) was 0.016 and the “OR85b DoOR response” value (OR85b) was 0.65. For the same compound, the “OR13a DoOR response” value (OR13a) was 0.26, the EC50 (Drosophila OR85b; AVERAGE EC50, from average LOG EC50, N 5) was 68.9 µM and the EC50 (Drosophila OR85b; EC50 (fitted parameter), individual biological replicates) was 50.9 µM and 47.5 µM and 41.7 µM and 42.2 µM. For the same compound, the EC50 (Drosophila OR85b; EC50, AVERAGE, arithmetic average of 5 replicate EC50) was 110 µM, the EC50 (Drosophila OR85b; EC50, FITTED AVERAGE CURVE, fit to the average curve) was 72.2 µM and the EC50 (Drosophila OR85b; EC50, OR85b cell line, fitted Hill equation, Hill coefficient constrained to 1, maximal response max 1) was 68.9 µM. For the same compound, the activation at 1 µM (Drosophila OR85b; [1]) was 4%, the activation at 10 µM (Drosophila OR85b; [1]) was 20% and the activation at 100 µM (Drosophila OR85b; [1]) was 55%. It also gave an activation at 1 µM (Drosophila OR85b; [2]) of 0%, an activation at 10 µM (Drosophila OR85b; [2]) of 20% and an activation at 100 µM (Drosophila OR85b; [2]) of 55%. The Emax (Drosophila OR85b; HEK293, read-out: VUAA1 normalized MAX response) was 72%, the EC50 (Drosophila OR85b; LOG EC50 (fitted parameter), individual biological replicates, OR85b D-R sheet) was 50.9 µM and 47.5 µM and 41.7 µM and 42.2 µM and the EC50 (Drosophila OR85b; LOG EC50, AVERAGE, average of 5 biological replicates) was 68.9 µM. It also gave an Average response (Drosophila OR85b; cc. 1 µM) of 0.037, an Average response (Drosophila OR85b; cc. 10 µM) of 0.20 and an Average response (Drosophila OR85b; cc. 100 µM) of 0.55. The “response, AVERAGE” value (Drosophila OR85b; [3]) was 0, the “response, biological replicates” value (Drosophila OR85b; [3]) was 0 and the “response, AVERAGE” value (Drosophila OR85b; [4]) was 0. The “response, biological replicates” value (Drosophila OR85b; [4]) was 0, the “response, AVERAGE” value (Drosophila OR85b; [5]) was 0.02418 and the “response, biological replicates” value (Drosophila OR85b; [5]) was 0 (3×) and 0.06045 (2×). The “response, AVERAGE” value (Drosophila OR85b; [6]) was 0, the “response, biological replicates” value (Drosophila OR85b; [6]) was 0 and the “response, AVERAGE” value (Drosophila OR85b; [7]) was 0. The “response, biological replicates” value (Drosophila OR85b; [7]) was 0, the “response, AVERAGE” value (Drosophila OR85b; [8]) was 0.05175 and the “response, biological replicates” value (Drosophila OR85b; [8]) was 0 (2×) and 0.08029 and 0.08922 (2×). For the same compound, the “response, AVERAGE” value (Drosophila OR85b; [9]) was 0.07565, the “response, biological replicates” value (Drosophila OR85b; [9]) was 0.1715 and 0 and 0.05971 and 0.07351 (2×) and the “response, AVERAGE” value (Drosophila OR85b; [10]) was 0.1574. The “response, biological replicates” value (Drosophila OR85b; [10]) was 0.2412 and 0.05753 and 0.1726 and 0.1579 (2×), the “response, AVERAGE” value (Drosophila OR85b; [11]) was 0.2822 and the “response, biological replicates” value (Drosophila OR85b; [11]) was 0.4423 and 0.101 and 0.2153 and 0.3264 (2×). The “response, AVERAGE” value (Drosophila OR85b; [12]) was 0.3295, the “response, biological replicates” value (Drosophila OR85b; [12]) was 0.5597 and 0.152 and 0.2767 and the “response, AVERAGE” value (Drosophila OR85b; [13]) was 0.3923. For the same compound, the “response, biological replicates” value (Drosophila OR85b; [13]) was 0.6627 and 0.1546 and 0.3278 and 0.4082 (2×), the “response, AVERAGE” value (Drosophila OR85b; [14]) was 0.3199 and the “response, biological replicates” value (Drosophila OR85b; [14]) was 0.2321 and 0.3319 and 0.3577 (2×). For the same compound, the “AVERAGE MAX” value (Drosophila OR85b; average of 5 biological replicates) was 0.7284, the “DF norm AVERAGE OR85b” value (Drosophila OR85b; [15]) was 0 and the “DF norm AVERAGE OR85b” value (Drosophila OR85b; [16]) was 0.1962. The “DF norm AVERAGE OR85b” value (Drosophila OR85b; [17]) was 0.5508, the “MAX, fitted average curve” value (Drosophila OR85b; fit to the average curve) was 0.6682 and the “MAX (fitted parameter)” value (Drosophila OR85b; individual biological replicates) was 1 (2×) and 0.5003 and 0.5695 and 0.5722.
For `CCCCCC(O)CC` (centres unmarked) [3-octanol], the “OR49b DoOR response” value (OR49b) is listed as 0.03, the “OR47a DoOR response” value (OR47a) is listed as 0.47 and the “OR71a DoOR response” value (OR71a) is listed as 0.01. For the same compound, the “OR98a DoOR response” value (OR98a) was 0.59, the “OR10a DoOR response” value (OR10a) was 0.12 and the “OR85b DoOR response” value (OR85b) was 0.68. For the same compound, the “OR13a DoOR response” value (OR13a) was 0.58, the activation at 1 µM (Drosophila OR85b; [2]) was 0% and the activation at 10 µM (Drosophila OR85b; [2]) was 0%. For the same compound, the activation at 100 µM (Drosophila OR85b; [2]) was 0%, the Average response (Drosophila OR85b; cc. 1 µM) was 0.00 and the Average response (Drosophila OR85b; cc. 10 µM) was 0.00. For the same compound, the Average response (Drosophila OR85b; cc. 100 µM) was 0.0171, the “DF norm AVERAGE OR85b” value (Drosophila OR85b; [15]) was 0 and the “DF norm AVERAGE OR85b” value (Drosophila OR85b; [16]) was 0. The “DF norm AVERAGE OR85b” value (Drosophila OR85b; [17]) was 0.
In the case of `CC1=CCC2CC1C2(C)C` (stereo not drawn) [alpha-pinene], the “OR49b DoOR response” value (OR49b) is listed as 0.018, the “OR47a DoOR response” value (OR47a) is listed as 0.035 and the “OR71a DoOR response” value (OR71a) is listed as 0.04. The “OR98a DoOR response” value (OR98a) was 0.43, the “OR10a DoOR response” value (OR10a) was 0.004 and the “OR85b DoOR response” value (OR85b) was 0.15. The “OR13a DoOR response” value (OR13a) was 0.10, the activation at 1 µM (Drosophila OR85b; [2]) was 0% and the activation at 10 µM (Drosophila OR85b; [2]) was 0%. The activation at 100 µM (Drosophila OR85b; [2]) was 0%, the Average response (Drosophila OR85b; cc. 1 µM) was 0.03 and the Average response (Drosophila OR85b; cc. 10 µM) was 0.00. For the same compound, the Average response (Drosophila OR85b; cc. 100 µM) was 0.0358, the “DF norm AVERAGE OR85b” value (Drosophila OR85b; ligand concentration 1 (unit not given), threshold 0.05, below shown as 0) was 0 and the “DF norm AVERAGE OR85b” value (Drosophila OR85b; ligand concentration 10 (unit not given), threshold 0.05, below shown as 0) was 0. For the same compound, the “DF norm AVERAGE OR85b” value (Drosophila OR85b; ligand concentration 100 (unit not given), threshold 0.05, below shown as 0) was 0.
